50 compounds from ChEMBL document CHEMBL1201862, “PubChem BioAssay data set” (2004) can be followed below.

Active and inactive are the calls of the source. Bounds are passed on as bounds.

Some targets named below: Cytochrome P450 3A4 (Homo sapiens, UniProt P08684); Cytochrome P450 2C9 (Homo sapiens, UniProt P11712); Cytochrome P450 2D6 (Homo sapiens, UniProt P10635).
A further data set deals with Cytochrome P450 2C19 (Homo sapiens, UniProt P33261). Put plainly: Cytochrome panel assay with activity outcomes. Panel member name: p450-cyp2c19 Compounds with AC50 equal or less than 10 uM are considered active. The format is functional.
The nature of data set [1]: Luminescence Cell-Based Dose Confirmation HTS to Identify Activators of 5'UTR Stem-Loop Driven Alpha-Synuclein mRNA Translation in H4 Neuroglioblastoma Cells. [Related pubchem assays: 1829 (Project Summary), 1814 (Primary HTS)]. In kind it is functional.
Data set [2] is described as follows: Luminescence Cell-Based Dose Response HTS to Identify Activators of Luciferase Translation or Activity in H4 […] Cells. [Related pubchem assays: 1829 (Project Summary), 1814 (Primary HTS)]. The format is functional.
For the next data set, the system named is H4. The data set can be described thus: Luminescence Cell-Based Dose Response HTS to Identify Activators of 5'UTR Stem-Loop Driven Prion Protein mRNA Translation in H4 Neuroglioblastoma Cells. [Related pubchem assays: 1829 (Project Summary), 1814 (Primary HTS)]. Particulars: Homo sapiens. In kind it is functional.
A further data set deals with T1, Cytochrome P450 1A2 (Homo sapiens, UniProt P05177).
T1 sequence (P05177 whole entry): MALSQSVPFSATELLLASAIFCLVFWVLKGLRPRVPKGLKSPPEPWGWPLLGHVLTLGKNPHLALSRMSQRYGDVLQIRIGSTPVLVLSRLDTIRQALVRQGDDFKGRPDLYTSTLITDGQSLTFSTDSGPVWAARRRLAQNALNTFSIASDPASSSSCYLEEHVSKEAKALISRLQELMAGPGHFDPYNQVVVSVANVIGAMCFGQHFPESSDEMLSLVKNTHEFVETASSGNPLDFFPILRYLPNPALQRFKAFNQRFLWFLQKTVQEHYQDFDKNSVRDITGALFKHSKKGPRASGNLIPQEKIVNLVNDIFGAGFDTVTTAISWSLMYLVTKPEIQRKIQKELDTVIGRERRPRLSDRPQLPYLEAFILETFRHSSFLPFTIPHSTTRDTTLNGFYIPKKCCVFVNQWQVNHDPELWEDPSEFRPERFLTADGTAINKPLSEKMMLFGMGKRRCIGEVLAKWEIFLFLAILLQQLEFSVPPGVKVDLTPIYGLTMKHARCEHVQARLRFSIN

Chain of Cytochrome P450 3A4 (P08684 whole entry): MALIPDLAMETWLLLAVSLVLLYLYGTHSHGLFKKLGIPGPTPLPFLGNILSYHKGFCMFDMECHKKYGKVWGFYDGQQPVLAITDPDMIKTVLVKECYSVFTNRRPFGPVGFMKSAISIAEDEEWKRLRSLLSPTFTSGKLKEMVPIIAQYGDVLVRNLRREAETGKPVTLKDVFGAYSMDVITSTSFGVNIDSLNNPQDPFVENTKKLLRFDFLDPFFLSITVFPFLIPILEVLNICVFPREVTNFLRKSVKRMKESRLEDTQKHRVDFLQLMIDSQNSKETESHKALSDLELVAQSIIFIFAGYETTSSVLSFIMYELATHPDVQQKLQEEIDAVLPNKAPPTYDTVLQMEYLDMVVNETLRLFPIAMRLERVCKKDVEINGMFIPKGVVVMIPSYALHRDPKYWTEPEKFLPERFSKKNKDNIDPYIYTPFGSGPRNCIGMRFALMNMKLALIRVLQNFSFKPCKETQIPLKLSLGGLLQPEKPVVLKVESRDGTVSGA
Chain of Cytochrome P450 2D6 (P10635 whole entry): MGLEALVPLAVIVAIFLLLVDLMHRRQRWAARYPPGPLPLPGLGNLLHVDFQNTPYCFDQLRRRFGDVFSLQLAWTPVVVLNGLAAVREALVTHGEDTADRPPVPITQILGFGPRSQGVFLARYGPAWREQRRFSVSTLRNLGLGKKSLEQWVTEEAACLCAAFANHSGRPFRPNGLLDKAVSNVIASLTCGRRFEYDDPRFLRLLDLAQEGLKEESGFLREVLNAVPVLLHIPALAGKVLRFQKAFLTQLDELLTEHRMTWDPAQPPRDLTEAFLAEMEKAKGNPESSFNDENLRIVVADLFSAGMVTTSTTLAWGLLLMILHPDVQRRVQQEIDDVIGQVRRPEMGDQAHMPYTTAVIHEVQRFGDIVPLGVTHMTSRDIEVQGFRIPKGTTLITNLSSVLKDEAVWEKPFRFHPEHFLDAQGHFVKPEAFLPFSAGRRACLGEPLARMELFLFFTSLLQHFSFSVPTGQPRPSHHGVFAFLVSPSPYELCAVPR
Chain of Cytochrome P450 2C19 (P33261 whole entry): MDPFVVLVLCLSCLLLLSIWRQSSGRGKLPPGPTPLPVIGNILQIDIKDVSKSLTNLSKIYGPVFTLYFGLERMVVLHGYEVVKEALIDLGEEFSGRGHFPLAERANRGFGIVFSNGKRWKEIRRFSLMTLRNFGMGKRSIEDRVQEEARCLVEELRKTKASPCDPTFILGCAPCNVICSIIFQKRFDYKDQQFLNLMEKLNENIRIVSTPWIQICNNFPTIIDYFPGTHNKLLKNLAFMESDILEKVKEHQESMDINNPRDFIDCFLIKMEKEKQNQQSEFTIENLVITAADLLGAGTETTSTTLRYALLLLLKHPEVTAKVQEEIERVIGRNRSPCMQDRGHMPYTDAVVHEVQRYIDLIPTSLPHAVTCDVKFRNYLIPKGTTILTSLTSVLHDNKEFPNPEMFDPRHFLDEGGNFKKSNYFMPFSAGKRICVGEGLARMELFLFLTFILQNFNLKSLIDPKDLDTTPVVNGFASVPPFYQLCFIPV
Chain of Cytochrome P450 2C9 (P11712 whole entry): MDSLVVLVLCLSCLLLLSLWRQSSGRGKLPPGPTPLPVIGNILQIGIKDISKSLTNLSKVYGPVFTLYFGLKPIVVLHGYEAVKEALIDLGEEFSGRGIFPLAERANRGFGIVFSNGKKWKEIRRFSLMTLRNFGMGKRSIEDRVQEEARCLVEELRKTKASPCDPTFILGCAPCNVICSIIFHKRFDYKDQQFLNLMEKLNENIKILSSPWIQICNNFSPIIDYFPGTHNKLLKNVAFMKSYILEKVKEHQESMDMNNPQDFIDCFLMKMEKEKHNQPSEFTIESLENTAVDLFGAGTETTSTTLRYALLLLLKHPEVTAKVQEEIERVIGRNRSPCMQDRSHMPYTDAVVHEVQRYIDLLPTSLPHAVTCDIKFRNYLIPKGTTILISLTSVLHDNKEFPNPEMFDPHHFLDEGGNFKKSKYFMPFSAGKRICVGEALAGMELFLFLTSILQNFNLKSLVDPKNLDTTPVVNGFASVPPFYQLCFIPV

Regarding `CNC(=O)c1cc2c(cn1)[nH]c1ccccc12`, the half-maximal activity concentration (AC50) (commonly the concentration at which the activity in the assay is half-maximal) was “inconclusive” at Cytochrome P450 2C19, 39.8 µM (inconclusive) on Cytochrome P450 3A4 and 31.6 µM (inconclusive) at Cytochrome P450 2C9.
As to `O=c1[nH]ncc2c3ccccc3n(Cc3ccccc3)c12`, the values for the AC50 at Cytochrome P450 2C19 (read-out: AC50) and at Cytochrome P450 2C9 were 2.51 µM (inconclusive) and 2 µM (inconclusive), respectively.
`COc1ccc2nc(NNC(=O)c3cc(=O)c4ccccc4o3)sc2c1`: the EC50 (as a rule, the concentration needed to bring the measured effect to its halfway point) in data set [1] was 40.6 µM (active); in data set [2], 24.4 µM (active); in the data set with H4, 17.4 µM (active).
On to `CCOC(=O)c1ccccc1NC(=O)CSc1cccc[n+]1[O-]`, for which the concentration at half-maximal activity (AC50) is 22.4 µM (inconclusive) at Cytochrome P450 2C19 (read-out: AC50) and 25.1 µM (inconclusive) at Cytochrome P450 1A2.
With `COc1ccccc1-c1cncnc1-n1ccnc1`, the AC50 on Cytochrome P450 2C19 (read-out: AC50) and at Cytochrome P450 2D6 was 25.1 µM (inconclusive) throughout.
`COC(=O)C1(Cc2ccccc2)C=C2C(=C(C(C)C)C(=O)C2C)CN1` (stereo unspecified): the AC50 is 39.8 µM (inconclusive) on Cytochrome P450 2C19 (read-out: AC50), 15.8 µM (inconclusive) at Cytochrome P450 1A2 and 31.6 µM (inconclusive) on Cytochrome P450 2C9.
As to `NC(=O)C1CC(=O)N(c2ccc(OCc3ccc(Cl)cc3)cc2)C1` (stereo unspecified), the EC50 in data set [1] is 19.2 µM (active); in data set [2], 42.6 µM (active).
Turning to `CC1(CCC#N)N=C(SCCC#N)N(c2ccccc2)C1=O` (stereo unspecified), at Cytochrome P450 2C19 (read-out: AC50), the AC50 was 25.1 µM (inconclusive).
For `O=C1C[C@H]2[C@H](CO)[C@@H](OC(=O)c3ccc(-c4ccccc4)cc3)C[C@H]2O1`, the EC50 in data set [1] is 12.8 µM (active); in data set [2], 16.9 µM (active); in the data set with H4, 69.8 µM (active).
On to `CC(C)=NOCc1cccc(-c2cc(-c3ccccc3)no2)c1`, for which, at Cytochrome P450 3A4, the AC50 was 6.31 µM (inconclusive).
Same read-out and setting: to `C(=C/c1ccccc1)/C=N/c1ccc2c(c1)Cc1ccccc1-2` belongs 3.98 µM (inconclusive).
With `COc1ccc(C2SCC(=O)Nc3c2c(C)nn3-c2ccccc2)cc1OC` (stereo unspecified), the AC50 was 22.4 µM (inconclusive) at Cytochrome P450 1A2 and 12.6 µM (inconclusive) at Cytochrome P450 3A4.
For the compound `CS(=O)(=O)Nc1cccc(-c2nc(NCc3cccnc3)c3ccccc3n2)c1`, the AC50 on Cytochrome P450 2C9 was 1 µM (inconclusive).
Turning to `O=C1c2ccccc2C(=O)c2c1ccc(C(=O)O)c2-c1ccc2ccccc2c1`, the AC50 on Cytochrome P450 2D6 is 7.94 µM (inconclusive); at Cytochrome P450 1A2, 1.26 µM (inconclusive).
With `Cc1ccc(C(=O)NCCCN2CCOCC2)cc1N1CCCC1=O`, the AC50 on Cytochrome P450 2C9 was 1.26 µM (inconclusive).
In the case of `CCOc1ccc2nc(NC(=O)CSc3nnc(-c4ccncc4)n3CC3CCCO3)sc2c1` (stereo unspecified), the EC50 in data set [1] is 7.45 µM (active); in data set [2], 8.04 µM (active); in the data set on H4 it was 11.8 µM (active).
As for `CCCCCCCCCCCCC/C=C\[C@@H](O)[C@@H](N)CO`, the figures for the AC50 at Cytochrome P450 2C19 (read-out: AC50) and at Cytochrome P450 2C9 were 25.1 µM (inconclusive) and 39.8 µM (inconclusive), respectively.
As for `CC(Sc1nncn1C)C(=O)Nc1nnc(-c2ccccc2)s1` (stereo unspecified), the EC50 in data set [1] was 19.1 µM (active); in data set [2], 25 µM (active); in the data set on H4 it was 17.5 µM (active).
Regarding `CC(=O)NN1C(=O)/C(=C\c2ccc(C)cc2)SC1=S`, the AC50 on Cytochrome P450 2C9 was 28.2 µM (inconclusive).
For the compound `Cn1ncc2cc(NC(=S)NC(=O)c3ccccc3)ccc21`, the EC50 in data set [1] was 13.8 µM (active); in data set [2], 21 µM (active); with H4, 83 µM (active).
`CN(C)c1ncc2nc(-c3ccc(Cl)cc3)c(=O)n(-c3ccccc3)c2n1`: the AC50 was 0.631 µM (inconclusive) on Cytochrome P450 2D6 and 5.01 µM (inconclusive) at Cytochrome P450 1A2.
As for `COc1ccccc1CN1CCCC2(CCN(C(=O)c3ccncc3)CC2)C1`, the AC50 at Cytochrome P450 1A2 and at Cytochrome P450 2C9 was 20 µM (inconclusive) each time.
`CCCCNc1nc(SC)nc2[nH]cnc12`: the AC50 on Cytochrome P450 2C19 (read-out: AC50) was 3.16 µM (inconclusive); at Cytochrome P450 2D6 it was 2.51 µM (inconclusive); at Cytochrome P450 3A4, 3.16 µM (inconclusive).
With `COCCn1c(=O)c(-c2ccc(Cl)cc2)nc2cncnc21`, the AC50 on Cytochrome P450 2C19 (read-out: AC50) was 39.8 µM (inconclusive); on Cytochrome P450 3A4 it was 12.6 µM (inconclusive); at Cytochrome P450 2C9 it was 31.6 µM (inconclusive).
`CCCCN1C(=O)C(NC(=O)CC(C)C)(C(F)(F)F)C2=C1CC(C)(C)CC2=O` (stereo unspecified): the AC50 is 25.1 µM (inconclusive) on Cytochrome P450 2C19 (read-out: AC50) and 5.62 µM (inconclusive) on Cytochrome P450 2C9.
As to `COc1ccc(C2CC(c3ccc4ccccc4c3)=NN2C(=O)CN2CCC(C(N)=O)CC2)cc1` (stereo unspecified), the EC50 in data set [1] is 15.6 µM (active); in data set [2], 18.1 µM (active); with H4, 16.5 µM (active).
For the compound `Fc1ccc(-c2csc(N3CCC(c4ccccc4)C3)n2)cc1` (stereo unspecified), the AC50 at Cytochrome P450 3A4 was 28.2 µM (inconclusive).
For the compound `Cc1ccc(CNC(=O)Cn2c(=O)oc3ccccc32)o1`, the AC50 on Cytochrome P450 2D6 was 20 µM (inconclusive).
Regarding `CC12COC3(C(=O)Nc4nccs4)CC1CCC32C` (stereo unspecified), the figures for the AC50 at Cytochrome P450 1A2 and on Cytochrome P450 2C9 were 12.6 µM (inconclusive) and 0.01 µM (inconclusive), respectively.
For the compound `COc1ccc(C(=O)NCCCN2CCOCC2)cc1OC`, the figures for the AC50 on Cytochrome P450 2D6 and on Cytochrome P450 2C9 were 2 µM (inconclusive) and 14.1 µM (inconclusive), respectively.
For the compound `C/C(=C\c1ccco1)CN1CCC(N2CCC(C(=O)N3CCOCC3)CC2)CC1`, the EC50 was 11.2 µM (active) in data set [1], 15.5 µM (active) in data set [2] and > 120 µM (not active) with H4.
With `COc1ccc(-c2cc(C(=O)Nc3cccc(Cl)c3)no2)cc1`, the EC50 in the data set on H4 was 0.184 µM (active).
For the compound `CCOc1cc(NC(=O)c2ccccc2C)c(OCC)cc1N=C(S)NCC1CCCO1` (stereo unspecified), on Cytochrome P450 2C19 (read-out: AC50), the AC50 is 11.2 µM (inconclusive).
For the compound `CCOc1ccc(-c2nnc(-c3ccncc3)o2)cc1`, the AC50 on Cytochrome P450 3A4 was 1.58 µM (inconclusive).
With `CC(C)c1nnc(NC(=O)COc2ccccc2[N+](=O)[O-])s1`, the EC50 was 0.112 µM (active) in data set [1], 67 µM (active) in data set [2] and 13.6 µM (active) with H4.
As to `Cc1cc(C)c(C(N)=O)c(SCC(=O)c2ccc(Cl)cc2)n1`, the AC50 at Cytochrome P450 1A2 was 15.8 µM (inconclusive); at Cytochrome P450 3A4, 31.6 µM (inconclusive).
On to `CCNc1ncc2nc(-c3cccc(C#N)c3)c(=O)n(CCC#N)c2n1`, for which the AC50 on Cytochrome P450 1A2 is 0.631 µM (inconclusive); on Cytochrome P450 3A4 it was 7.94 µM (inconclusive).
`O=C(CSc1nnc2ccccn12)N1CCc2ccccc2C1`: the values for the EC50 (in data set [1]; in data set [2]; with H4) were 13.1 µM (active), 38.9 µM (active) and 78 µM (active), respectively.
As for `CC(C)(C)CC(C)(C)c1ccc(O)c(C[N+](C)(C)[O-])c1`, the figures for the AC50 at Cytochrome P450 2D6 and at Cytochrome P450 3A4 were 7.94 µM (inconclusive) and 5.01 µM (inconclusive), respectively.
On to `CCOC(=O)c1c(C)n(C)c2ccc(OC)c(NC(=O)CN3CCCCC3)c12`, for which the AC50 on Cytochrome P450 2C19 (read-out: AC50) was 11.2 µM (inconclusive); at Cytochrome P450 2D6, 20 µM (inconclusive); on Cytochrome P450 3A4 it was 14.1 µM (inconclusive).
For `CCCCN(C(S)=Nc1ccccc1)C1CCS(=O)(=O)C1` (stereo unspecified), the AC50 at Cytochrome P450 3A4 is 22.4 µM (inconclusive).
Consider `Cc1onc(-c2ccccc2)c1C(=O)NC(CC(=O)O)c1ccc(OC(C)C)cc1` (stereo unspecified), for which the AC50 on Cytochrome P450 2C19 (read-out: AC50) was 7.08 µM (inconclusive); on Cytochrome P450 3A4, 28.2 µM (inconclusive); at Cytochrome P450 2C9 it was 15.8 µM (inconclusive).
Consider `Cc1ccc(NC(=S)N2CCN(C3CCCCC3)CC2)cc1`, for which, at Cytochrome P450 3A4, the AC50 is 10 µM (inconclusive).
Consider `O=C(CN(Cc1ccccc1)S(=O)(=O)c1ccc2c(c1)OCCO2)N/N=C/c1ccc(F)cc1`, for which the AC50 on Cytochrome P450 2D6 is 15.8 µM (inconclusive); on Cytochrome P450 1A2 it was 11.2 µM (inconclusive).
Take `C/C(=N/NC(=O)c1cccs1)c1ccc(NC(=O)COc2ccc(Cl)cc2Cl)cc1`: the AC50 at Cytochrome P450 1A2 was 12.6 µM (inconclusive); at Cytochrome P450 2C9, 4.47 µM (inconclusive).
Take `C(=N\n1cnnc1)/c1cccn1-c1ccccc1`: the figures for the AC50 on Cytochrome P450 2C19 (read-out: AC50) and at Cytochrome P450 3A4 were 0.0251 µM (inconclusive) and 39.8 µM (inconclusive), respectively.
On to `COc1ccccc1CNc1ncnc2ccc(-c3ccccc3OC)cc12`, for which, at Cytochrome P450 2D6, the AC50 was 12.6 µM (inconclusive).
Consider `Nc1ccccc1SCc1csc(-c2ccc(Cl)cc2)n1`, for which the AC50 was 3.16 µM (inconclusive) on Cytochrome P450 2D6 and 5.01 µM (inconclusive) at Cytochrome P450 2C9.
In the case of `COc1ccc(-c2coc3cc(OC)cc(O)c3c2=O)cc1` [4',7-DIMETHOXY-5-HYDROXYGENISTEIN], the AC50 is 25.1 µM (inconclusive) on Cytochrome P450 2C19 (read-out: AC50) and 2.82 µM (inconclusive) on Cytochrome P450 2C9.
`CN(C(=O)Cc1ccc(Cl)c(Cl)c1)[C@H](CN1CCCC1)c1ccccc1` [ICI-199,441]: the figures for the AC50 on Cytochrome P450 2D6 and on Cytochrome P450 1A2 were 0.0126 µM (active) and 31.6 µM (inconclusive), respectively.
